Results on 3 compounds are retold here after patent publication US8603737B2, “Methods for identifying HCV protease inhibitors” (priority 2008, dated 2013).

The test system of test [1] is HCV RNA replicon in cell line ET (luc-ubi-neo/ET), human Huh7 hepatoma. Description: HCV RNA replicon assay (Example 5, Method A). It counts as cell-based. The following applies: Hepatitis C virus, Huh-7, 72 h. The protocol:
The compounds were assayed to evaluate the antiviral activity and cytotoxicity of compounds in vitro using HCV RNA replicons. This assay used the cell line ET (luc-ubi-neo/ET), which is a human Huh7 hepatoma cell line that contains an HCV RNA replicon with a stable luciferase (Luc) reporter and cell culture-adaptive mutations. The HCV RNA levels were directly measured by viral specific TaqMan RT-PCR:
The ET cell line was grown in Dulbecco's modified essential media (DMEM), 10% fetal bovine serum (FBS), 1% penicillin-streptomycin (pen-strep), 1% glutamine, 250 μg/mL G418 in a 5% CO2 incubator at 37° C. All cell culture reagents were obtained from Mediatech (Manassas, Va.). Cells were trypsinized (1% trypsin:EDTA) and plated out at 5×10^3 cells/well in white 96-well assay plates (Costar) dedicated to cell number (cytotoxicity) or antiviral activity assessments. Drugs were added at six 3-fold concentrations each and the assay was run in DMEM, 5% FBS, 1% pen-strep, 1% glutamine. Human interferon alpha-2b (PBL Biolabs, New Brunswick, N.J.) was included in each run as a positive control compound. […] Antiviral activity was measured by analyzing replicon-derived luciferase activity using the Steady-Glo Luciferase Assay System (Promega, Madison, Wis.) according to manufacturer's instruction. The number of cells in each well was determined by CytoTox-1 reagent (Promega). […]
On the technique in general: In antiviral work, replicon cells carry a viral genome segment that copies itself.

In test [2] the target is T1, HCV (D168V) mutant (Hepatitis C virus genotype 1b, UniProt P26663, D1194V).
T1 construct: genotype 1b mutations in the NS3 protease of A156T, A156S, D168V, D168A, and R155K
Kind of test: Mass spectrometric analysis of covalent modification, D168V mutant. It counts as binding. The following applies: 3 hours reaction time. The procedure:
(§1) Mass spectrometric analysis of HCV wild type or HCV variants (C159S, A156S, R155K, D168A, A156T, and D168V) in the presence of test compound was performed. 100 pmols of HCV wild type (Bioenza Calif.) was incubated with test compound for 1 hr and 3 hrs at 10-fold excess of test compound to protein. 1 μL aliquots of the samples (total volume of 4.24 μL) were diluted with 10 μL of 0.1% TFA prior to micro C4 ZipTipping directly onto the MALDI target using Sinapinic acid as the desorption matrix (10 mg/mL in 0.1% TFA:Acetonitrile 50:50). Analyses were performed on a Shimadzu Biotech Axima TOF (Shimadzu Instruments) matrix-assisted-laser desorption/ionization Time-of-Flight (MALDI-TOF) mass spectrometer. The same procedure was carried out on 100 pmols of HCV C159S mutant of HCV protease for 3 hrs at 10-fold excess of test compound to protein.

Test [3] concerns the target T2, HCV (A156S) mutant (Hepatitis C virus genotype 1b, UniProt P26663, A1182S).
T2 construct: genotype 1b mutations in the NS3 protease of A156T, A156S, D168V, D168A, and R155K
Kind of test: Mass spectrometric analysis of covalent modification, A156S mutant. The format is binding. The following applies: 3 hours reaction time. The procedure:
as §1

In test [4] the test system is HCV (R155K) mutant. Kind of test: Mass spectrometric analysis of covalent modification, R155K mutant. It counts as binding. The following applies: 3 hours reaction time. The procedure:
as §1

The target of test [5] is T3, HCV (A156T) mutant (Hepatitis C virus genotype 1b, UniProt P26663, A1182T).
T3 construct: genotype 1b mutations in the NS3 protease of A156T, A156S, D168V, D168A, and R155K
Kind of test: Mass spectrometric analysis of covalent modification, A156T mutant. The format is binding. The following applies: 3 hours reaction time. The protocol:
as §1

The target in test [6] is T4, NS3 protease self-cleavage in Huh-7-Luc-Neo-ET cells (Hepatitis C virus genotype 1b, UniProt Q9WMX2, E1202G/T1280I).
T4 construct: host or cells: Huh-7-Luc-Neo-ET replicon cells (human hepatoma Huh7)
The format is cell-based, HCV. The following applies: replicon cells treated for 16 hours, continuous exposure (FIG. 3). The protocol: Inhibition of Protease Self Cleavage
The remaining wells were rinsed 2× with PBS then fed with Replicon Media and returned to the incubator.
Cell lysates were separated by SDS-Page (4-20%) and transferred to Immobilon-P PVDF membrane (Millipore Corporation, MA) and blotted with polyclonal anti NS3 antibody (Bioenza, Calif.). Blots were scanned on an Odyssey infrared scanner from Licor and the FL band and cleavage products were quantified separately using the Licor software provided with the scanner. The cleavage product was calculated as a percentage of the total NS3 in each sample and then normalized to the DMSO control so that the DMSO control reflects 100% activity.

Some results are limits rather than exact numbers.

Regarding `C=C[C@@H]1C[C@]1(NC(=O)[C@@H]1C[C@@H](Oc2cc(-c3ccccc3)nc3cc(OC)ccc23)CN1C(=O)C(NC(=O)OC(C)(C)C)[C@@H](C)OC(=O)/C=C/C)C(=O)NS(=O)(=O)C1CC1` (stereo partly shown) [Compound 3], the IC50 (usually the concentration needed to halve the response being measured) in test [1] (read-out: Inhibition, Replicon (IC50)) is less than 10 nM. Further, in test [1] (read-out: Inhibition, Replicon, IC90 value), the IC90 – broadly, the concentration at which the effect reaches the 90% level – was less than 10 nM.
Take `C=CC(=O)N(C)C[C@H](NC(=O)OC(C)(C)C)C(=O)N1C[C@H](OC(=O)N2Cc3cccc(F)c3C2)C[C@H]1C(=O)N[C@]1(C(=O)NS(=O)(=O)C2CC2)C[C@H]1C=C` [Compound 4]: the “conversion via covalent modification (mass spectrometry)” value in test [2] was “complete conversion”; in test [3] it was “complete conversion”; in test [4], “good conversion”; in test [5] it was “complete conversion”.
With `CC(C)(C)OC(=O)NC1CN(C(=O)CCl)CCC/C=C\[C@@H]2C[C@@]2(C(=O)NS(=O)(=O)C2CC2)NC(=O)[C@@H]2C[C@@H](OC(=O)N3Cc4cccc(F)c4C3)CN2C1=O` (stereo partly shown) [Compound 8], in test [6], the “NS3 internal self-cleavage products after treatment” value is “inhibited”.
